# Measured values reported in patent US11339144B2 (Navitor Pharmaceuticals, Inc., priority 2017, dated 2022).
# pIC50: −log10 of the molar value.
# Columns and labels:
# Rheb = Rheb (Homo sapiens (Human), UniProt Q15382); assay: Affinity Selection Mass Spectrometry (ASMS); format: binding; conditions: affinity (R3/R0) in Affinity Selection Mass Spectrometry assay
# Method in brief: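 Affinity selection used 2 μM compound with 60 μM Rheb and 180 μM GDP for 30 min at room temperature. After 10 kDa ultrafiltration washes, protein was denatured in MeCN and bound compound quantified by C18 UPLC with Q-TOF MS, against a no-protein control.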
# [1] = target: HA-GST-Rheb (GTP-γ-S loaded) activating mTORC1 (Homo sapiens (Human), UniProt Q15382); assay: Rheb-dependent in vitro kinase assay (Rheb-IVK; LanthaScreen or Western readout); format: biochemical; conditions: Rheb-dependent in vitro kinase assay; read-out: IVK IC50
# Sequence of HA-GST-Rheb (GTP-γ-S loaded) activating mTORC1 (Q15382 1-181): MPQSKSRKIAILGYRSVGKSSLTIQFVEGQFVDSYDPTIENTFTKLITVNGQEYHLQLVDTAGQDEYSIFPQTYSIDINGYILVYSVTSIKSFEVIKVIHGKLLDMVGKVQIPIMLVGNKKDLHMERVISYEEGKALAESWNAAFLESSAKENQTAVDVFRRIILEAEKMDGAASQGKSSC
# Sequence of Rheb (Q15382 1-169 limits assumed): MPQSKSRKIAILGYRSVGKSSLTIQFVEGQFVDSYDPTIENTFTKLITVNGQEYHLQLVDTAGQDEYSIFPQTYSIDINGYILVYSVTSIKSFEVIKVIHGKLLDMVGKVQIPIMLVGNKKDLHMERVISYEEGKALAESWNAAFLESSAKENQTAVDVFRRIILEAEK
Compound,ASMS (R3/R0) (Rheb),pIC50 [1]
"O=C(O)c1cc2c(Cl)cc(Oc3ccccc3)cc2n1Cc1c[nH]cn1 [I-173, 1-((1H-imidazol-4-yl)methyl)-4-chloro-6-phenoxy-1H-indole-2-carboxylic acid]",C (an affinity (R3/R0)<20%),4.00 to 5.00
"N[C@@H]1CCCC[C@@H]1COc1c(Cl)c(Cl)cc2[nH]c(CO)nc12 (racemic) [I-376, (4-(((+,−)-cis-2-aminocyclohexyl)methoxy)-5,6-dichloro-1H-benzo[d]imidazol-2-yl)methanol]",C (an affinity (R3/R0)<20%),3.52 to 4.00
"1-(4-carboxybenzyl)-6-chloro-4-(3,4-dichlorophenoxy)-1H-indole-2-carboxylic acid [I-140]",B (an affinity (R3/R0) between 100% and 20%),4.00 to 5.00
"OCc1cc2c(Br)cc(OCCc3ccccc3)cc2[nH]1 [I-236, (4-Bromo-6-phenethoxy-1H-indol-2-yl)methanol]",B (an affinity (R3/R0) between 100% and 20%),4.00 to 5.00
"CN(C)C(=O)c1ccc(Cn2c(C(=O)O)cc3ccc(Sc4ccc(Oc5ccccc5)cc4)cc32)cc1 [I-17, 1-(4-(dimethylcarbamoyl)benzyl)-6-(4-phenoxyphenylthio)-1H-indole-2-carboxylic acid]",B (an affinity (R3/R0) between 100% and 20%),> 5.00
CN1CCC(CCNC(=O)c2cc3c(Br)cc(Sc4ccc(Cl)c(Cl)c4)cc3[nH]2)CC1 [I-97],B (an affinity (R3/R0) between 100% and 20%),< 4.00
OCc1nc2c(OCc3ccccc3)cc(Cl)cc2[nH]1 [I-493],C (an affinity (R3/R0)<20%),< 4.00
"OCc1cc(Sc2ccc(Cl)cc2)c2cc[nH]c2c1 [I-198, (4-(4-chlorophenylthio)-1H-indol-6-yl)methanol]",B (an affinity (R3/R0) between 100% and 20%),4.00 to 5.00
"Clc1cc(Oc2ccccc2Cl)c2cc[nH]c2c1 [I-202, 6-chloro-4-(2-chlorophenoxy)-1H-indole]",B (an affinity (R3/R0) between 100% and 20%),4.00 to 5.00
Clc1cc2[nH]c(-c3ccncc3)nc2c(OCC2CCCCC2)c1Cl [I-348],B (an affinity (R3/R0) between 100% and 20%),< 4.00
"CN(C)CCNC(=O)c1cc2c(Sc3ccc(Cl)cc3Cl)cc(Cl)cc2[nH]1 [I-115, 6-chloro-4-(2,4-dichlorophenylthio)-N-(2-(dimethylamino)ethyl)-1H-indole-2-carboxamide]",B (an affinity (R3/R0) between 100% and 20%),4.00 to 5.00
CC(C)(C)OC(=O)N1CCN(C(=O)c2ccc(Cn3c(C(=O)O)cc4c(Br)cc(Oc5ccccc5)cc43)cc2)CC1 [I-62],B (an affinity (R3/R0) between 100% and 20%),< 4.00
"CC(C)(O)CNC(=O)c1ccc(Cn2c(C(=O)O)cc3c(Br)cc(Oc4ccccc4)cc32)cc1 [I-55, 4-bromo-1-(4-(2-hydroxy-2-methylpropylcarbamoyl)benzyl)-6-phenoxy-1H-indole-2-carboxylic acid]",C (an affinity (R3/R0)<20%),4.00 to 5.00
CNCc1cc2c(Br)cc(Sc3ccc(Cl)c(Cl)c3)cc2n1Cc1ccc(C(=O)N(C)C)cc1 [I-38],A (an affinity (R3/R0)>100%),< 4.00
CC(C)(C)OC(=O)c1ccc(Cn2c(CO)cc3c(Br)cc(Oc4ccccc4)cc32)cc1 [I-151],C (an affinity (R3/R0)<20%),< 4.00
"Fc1cccc(Oc2cccc3[nH]ccc23)c1 [I-282, 4-(3-fluorophenoxy)-1H-indole]",C (an affinity (R3/R0)<20%),3.52 to 4.00

Compound,ASMS (R3/R0) (Rheb),pIC50 [1]
OCc1nc2cc(OCc3ccccc3F)c(Cl)cc2[nH]1 [I-481],C (an affinity (R3/R0)<20%),< 4.00
OCc1cc2c(Cl)cc(Oc3ccccc3)cc2n1Cc1nc[nH]n1 [I-226],C (an affinity (R3/R0)<20%),< 4.00
O=C(O)c1cc2c(Br)cc(Sc3ccc(Cl)c(Cl)c3)cc2n1Cc1ccc(C(=O)N2CCNCC2)cc1 [I-43],A (an affinity (R3/R0)>100%),< 4.00
"N#Cc1ccc(-c2nc3cc(Cl)c(Cl)cc3[nH]2)cc1 [I-370, 4-(5,6-dichloro-1H-benzo[d]imidazol-2-yl)benzonitrile]",B (an affinity (R3/R0) between 100% and 20%),4.00 to 5.00
OCc1nc2cc(OCc3ccccc3)c(Cl)cc2[nH]1 [I-492],C (an affinity (R3/R0)<20%),< 4.00
"Cn1c(C(=O)O)cc2c(Sc3ccc(Cl)cc3)cc(Cl)cc21 [I-207, 6-chloro-4-(4-chlorophenylthio)-1-methyl-1H-indole-2-carboxylic acid]",B (an affinity (R3/R0) between 100% and 20%),4.00 to 5.00
"OCc1cc2c(Br)cc(SCc3ccc(Cl)cc3)cc2[nH]1 [I-145, (4-bromo-6-(4-chlorobenzylthio)-1H-indol-2-yl)methanol]",B (an affinity (R3/R0) between 100% and 20%),4.00 to 5.00
CN1CCC(CNC(=O)c2cc3c(Br)cc(Sc4ccc5ccccc5c4)cc3n2Cc2ccc(C(=O)N(C)C)cc2)CC1 [I-23],B (an affinity (R3/R0) between 100% and 20%),< 4.00
"OCC(O)c1nc2c(OCC3CCCCC3)c(Cl)c(Cl)cc2[nH]1 (stereo not shown) [I-325, 1-(5,6-dichloro-4-(cyclohexylmethoxy)-1H-benzo[d]imidazol-2-yl)ethane-1,2-diol]",B (an affinity (R3/R0) between 100% and 20%),4.00 to 5.00
"O=C(O)c1cc2c(Sc3ccc(Cl)cc3Cl)cc(Cl)c(Cl)c2[nH]1 [I-45, 6,7-dichloro-4-(2,4-dichlorophenylthio)-1H-indole-2-carboxylic acid]",A (an affinity (R3/R0)>100%),> 5.00
"O=C(O)c1cc2c(Oc3cccc4cnccc34)cc(Cl)cc2[nH]1 [I-41, 6-chloro-4-(isoquinolin-5-yloxy)-1H-indole-2-carboxylic acid]",C (an affinity (R3/R0)<20%),3.52 to 4.00
"O=C(O)c1cc2cc(SCc3ccc(Cl)cc3)c(Cl)cc2[nH]1 [I-85, 6-chloro-5-(4-chlorobenzylthio)-1H-indole-2-carboxylic acid]",B (an affinity (R3/R0) between 100% and 20%),4.00 to 5.00
"Clc1cc2nc(-c3ccnc4[nH]ccc34)[nH]c2cc1Cl [I-359, 5,6-dichloro-2-(1H-pyrrolo[2,3-b]pyridin-4-yl)-1H-benzo[d]imidazole]",A (an affinity (R3/R0)>100%),4.00 to 5.00
"OCc1nc2cc(Cl)c(OCc3ccccc3)cc2n1Cc1ccc(-c2nnn[nH]2)cc1 [I-440, (1-(4-(1H-tetrazol-5-yl)benzyl)-6-(benzyloxy)-5-chloro-1H-benzo[d]imidazol-2-yl)methanol]",C (an affinity (R3/R0)<20%),4.00 to 5.00
"O=C(O)c1cc2c(Oc3ccc(C4CCCCC4)cc3)cc(Cl)cc2[nH]1 [I-125, 6-chloro-4-(4-cyclohexylphenoxy)-1H-indole-2-carboxylic acid]",B (an affinity (R3/R0) between 100% and 20%),> 5.00
CN(C)C(=O)c1ccc(Cn2c(C(=O)O)cc3c(Br)cc(SCc4ccc(Cl)c(Cl)c4)cc32)cc1 [I-18],B (an affinity (R3/R0) between 100% and 20%),< 4.00
